Experimental data from US9346823B2, “Detection and use of low molecular-weight modulators of the cold-menthol receptor TRPM8” (BASF SE, priority 2008, dated 2016).

Molecular target: T1, human receptor TRPM8 (Homo sapiens, UniProt Q7Z2W7)
T1 construct: expressed in transfected cells
Assay: Assay on TRPM8 modulators: Ca2+-sensitive dye (Fluo-4) fluorescence in HEK293 cells stably transfected with human TRPM8
Assay type: cell-based
Settings: tetracycline-induced, Fluo-4AM, agonist mode, triplicate, test concentrations 0.1-200 μM
Description: In this connection, “standard conditions” is understood as meaning an activity test carried out with HEK293 cells which have been transformed with human TRPM8 and loaded with calcium-sensitive dye (such as e.g. Fluo-4AM, i.e. fluo-4-acetoxymethyl ester), subsequent addition of the test compound and detection of the color change, the experimental procedure taking place at 37° C.; as described e.g. example 3 below, or in Behrendt et al. (2004) loc. cit.).
As test cell system, HEK293 cell line stably transfected with the human TRPM8 DNA (cf. above plasmid pind-M8) are produced. Preference here is given to HEK293 which offers the option, via the introduced plasmid, of inducing the TRPM8 expression by means of tetracycline.
The agonization or antagonization of the receptor can be quantified by means of a Ca^2+-sensitive dye (e.g. FURA, Fluo-4 etc.). On their own, agonists bring about an increase in the Ca^2+ signal; antagonists bring about, in the presence of e.g. menthol, a reduction in the Ca^2+ signal (in each case detected via the dye Fluo-4, which has different fluorescent properties as the result of Ca^2+ ). • a) Test Procedure:
Firstly, a fresh culture of transformed HEK cells is prepared in a manner known per se in cell culture flasks. The test cells HEK293-TRPM8 are detached from the cell culture flasks by means of trypsin and 40 000 cells/well are sown out with 100 μl of medium in 96-well plates (Greiner # 655948 poly-D-lysine-coated). To induce the receptor TRPM8, tetracycline is added to the growth medium (DMEM/HG, 10% FCS tetracycline-free, 4 mM L-glutamine, 15 μg/ml blasticidin, 100 μg/ml hygromycin B, 1 μg/ml tetracycline). On the following day, the cells are loaded with Fluo-4AM dye and the test is carried out. For this, the procedure is as follows: • addition of in each case 100 μl/well of dye solution Ca-4 kit (RB 141, Molecular Devices) to in each case 100 μl of medium (DMEM/HG, 10% FCS tetracycline-free, 4 mM L-glutamine, 15 μg/ml blasticidin, 100 μg/ml hygromycin B, 1 μg/ml tetracycline) • incubation in the hatching cabinet, 30 minutes/37° C./5% CO2, 30 minutes/RT • preparation of the test substances (various concentrations in 200 μl of HBSS buffer), and also of positive controls (various concentrations of menthol, icilin and ionomycin in 200 μl of HBSS buffer) and negative controls (only 200 μl of HBSS buffer) • addition of the test substances in amounts of 50 μl/well and measurement of the change in fluorescence (e.g. in the assay instrument FLIPR, Molecular Devices or NovoStar, BMG) at 485 nm excitation, 520 nm emission, and evaluation of the effectiveness of the various substances/concentrations and determination of the EC50 values.
The test substances are used in the assay in triplicate in concentrations of 0.1-200 μM. Normally, the compounds are kept ready in DMSO solutions and are diluted down to a maximum DMSO concentration of 2% for the assay. • b) Test Result

T1 sequence (Q7Z2W7 whole entry): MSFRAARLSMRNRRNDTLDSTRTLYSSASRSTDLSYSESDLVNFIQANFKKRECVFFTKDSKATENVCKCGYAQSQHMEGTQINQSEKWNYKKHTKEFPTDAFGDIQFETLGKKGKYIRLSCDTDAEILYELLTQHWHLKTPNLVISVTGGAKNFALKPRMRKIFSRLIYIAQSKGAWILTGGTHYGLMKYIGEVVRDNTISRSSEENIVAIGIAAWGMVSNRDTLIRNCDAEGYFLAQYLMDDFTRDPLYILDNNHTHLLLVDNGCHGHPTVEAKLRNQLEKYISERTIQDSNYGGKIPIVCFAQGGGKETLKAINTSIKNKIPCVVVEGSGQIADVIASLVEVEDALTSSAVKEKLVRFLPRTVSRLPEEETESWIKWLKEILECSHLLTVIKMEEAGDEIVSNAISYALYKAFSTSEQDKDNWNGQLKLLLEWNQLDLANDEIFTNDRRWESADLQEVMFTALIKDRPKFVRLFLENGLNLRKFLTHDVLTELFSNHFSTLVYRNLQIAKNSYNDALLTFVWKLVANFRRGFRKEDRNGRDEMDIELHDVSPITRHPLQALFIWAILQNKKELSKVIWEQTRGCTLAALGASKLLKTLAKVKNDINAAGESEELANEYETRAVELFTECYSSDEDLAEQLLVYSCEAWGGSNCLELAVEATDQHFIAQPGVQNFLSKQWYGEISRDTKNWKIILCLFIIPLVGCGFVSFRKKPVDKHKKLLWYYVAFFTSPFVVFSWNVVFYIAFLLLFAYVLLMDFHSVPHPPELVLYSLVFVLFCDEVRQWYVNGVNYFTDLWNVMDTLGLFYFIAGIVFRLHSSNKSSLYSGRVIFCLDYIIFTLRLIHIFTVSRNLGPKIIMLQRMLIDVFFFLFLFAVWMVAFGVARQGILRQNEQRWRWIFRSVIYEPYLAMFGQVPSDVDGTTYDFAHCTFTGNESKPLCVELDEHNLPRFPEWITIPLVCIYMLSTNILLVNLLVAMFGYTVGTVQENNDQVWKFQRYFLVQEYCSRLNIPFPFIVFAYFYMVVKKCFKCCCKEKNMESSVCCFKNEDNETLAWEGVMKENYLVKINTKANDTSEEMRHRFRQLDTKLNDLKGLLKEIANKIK

For Cc1ccc2c(C)c(C(=O)N(Cc3ccco3)C3CCS(=O)(=O)C3)oc2c1 (stereo not shown) [Compound 15], which EC50 is on record?
Its EC50 is 20 µM.

Which EC50 does the source give for Cn1nc(C(F)(F)F)cc1Oc1cc(C2OCCO2)cc(Cl)n1 [Compound 17] here?
Its EC50 is 50 µM.

For COc1cnc(-c2ccccn2)nc1NC(C)C [Compound 3], which EC50 is on record?
Its EC50 is 2 µM.

How did the EC50 turn out when COc1ccc(C(=O)Nc2sc3c(c2CN(C)C)CCCC3)cc1 [Compound 12] was run?
The EC50 was 10 µM.

Which EC50 does the source give for CCCCCCNC(=O)N(Cc1ccccc1)c1ccccc1 [Compound 7] here?
Its EC50 is 4 µM.

Which EC50 does the source give for CC1(C)CC2CC(C)(CN2/C=N/c2sc3c(c2C#N)CCCCC3)C1 (stereo not shown) [Compound 10] here?
The EC50 was 10 µM.

How did the EC50 turn out when O=C1CN(C(=O)c2ccccc2)c2ccc(C(F)(F)F)cc2N1 [Compound 9] was run?
Its EC50 is 10 µM.

O=C(Nc1cccc2ccccc12)N(Cc1ccccc1)c1ccccc1 [Compound 11] was tested. Which EC50 did it give?
The EC50 was 10 µM.

C=CCn1c(C)cc(C(=O)CSc2nc(C)cc(C(F)(F)F)c2C#N)c1C [Compound 16] was tested. Which EC50 did it give?
The EC50 was 25 µM.

O=C(/C=C/c1ccc2c(c1)OCO2)N(c1ccccn1)C1CCCCC1 [Compound 5] was tested. Which EC50 did it give?
The EC50 was 2.5 µM.

O=C(COc1ccc2c(c1)OCO2)N(c1ccccc1)C1CCCCC1 [Compound 4] was tested. Which EC50 did it give?
Its EC50 is 2.5 µM.

CCOC(=O)C1CCN(Cc2cc(C(C)C)c(O)c(C(C)C)c2)CC1 [Compound 14] was tested. Which EC50 did it give?
Its EC50 is 20 µM.

With O=C(Nc1ccc([N+](=O)[O-])cc1)Nc1ccccc1N1CCCCC1 [Compound 6] as the molecule, how does the EC50 read?
Its EC50 is 3.5 µM.

Which EC50 does the source give for CC1(C)CC(=O)C2=C(C1)N1CCc3ccccc3C1CC21SCCS1 (stereo not shown) [Compound 2] here?
Its EC50 is 2 µM.

How did the EC50 turn out when CC1=C/C(=N\NC(=O)CCN2CCN(c3ccccc3)CC2)CC1 [Compound 18] was run?
Its EC50 is 100 µM.

With Cc1[nH]c(SC(C)C(=O)Nc2cccc(C#N)c2)nc1Cc1ccccc1 (stereo not shown) [Compound 8] as the molecule, how does the EC50 read?
Its EC50 is 5 µM.

Which EC50 does the source give for C=C1C2(C(=O)NCCc3ccccc3)CCC(C2)C1(C)C (stereo not shown) [Compound 19] here?
The EC50 was 100 µM.

With CC(NCc1ccc(OC(F)F)cc1)c1ccc2c(c1)CCCC2 (stereo not shown) [Compound 13] as the molecule, how does the EC50 read?
Its EC50 is 10 µM.

For CC1OC(=O)C2=C1N1CCc3ccccc3C1CC21SCCS1 (stereo not shown) [Compound 1], which EC50 is on record?
Its EC50 is 0.4 µM.
